The source of these data is paper PMC2995054 (Nucleic Acids Research, 2010).

This assay deals with vaccinia virus D10 decapping enzyme (His-tagged, WT) (Vaccinia virus, UniProt P04312). In words: biochemical. Type of assay: biochemical. Particulars: for remaining activity at 100 µM: 0.25 h, read-out: Relative decapping activity (%) (100 µM analog).

SMILES strings stand for the structures.

Turning to `Cc1cn([C@@H]2O[C@H](COP(=O)(O)OP(=O)(O)OP(=O)(O)O)[C@@H](O)[C@H]2O)c(=O)nc1N` [5-methyl-CTP], the “Inhibition of the decapping reaction (in words)” value (from here on “Inhibition”) is “unable to affect the activity of the enzyme”.

`Cc1cn([C@@H]2O[C@H](COP(=O)(O)OP(=O)(O)OP(=O)(O)O)[C@@H](O)[C@H]2O)c(=O)[nH]c1=O` [5-methyl-UTP]: the “Inhibition” value was “unable to affect the activity of the enzyme”.

As for `Nc1ccn([C@@H]2O[C@H](COP(=O)(O)OP(=O)(O)O)[C@@H](O)[C@H]2O)c(=O)n1` [CDP], the “Inhibition” value was “unable to affect the activity of the enzyme”.

Take `Nc1ccn([C@@H]2O[C@H](COP(=O)(O)OP(=O)(O)OP(=O)(O)O)[C@@H](O)[C@H]2O)c(=O)n1` [CTP]: the “Inhibition” value is “no inhibition”.

Turning to `Nc1nc2nc[nH]c2c(=O)[nH]1` [Guanine], the IC50 was greater than 200 µM, the “Inhibition” value is reported as “did not affect the decapping reaction”, the Ki is greater than 0.8 µM and the remaining activity at 100 µM was found to be 92 ± 4%.

Regarding `NC(=O)c1ncn([C@@H]2O[C@H](CO[P@@](=O)(O)O[P@](=O)(O)OP(=O)(O)O)[C@@H](O)[C@H]2O)n1` [Ribavirin triphosphate], the IC50 was greater than 200 µM, the Ki is greater than 0.8 µM and the remaining activity at 100 µM was determined as 96 ± 3%.

For the compound `O=c1ccn([C@@H]2O[C@H](COP(=O)(O)OP(=O)(O)O)[C@@H](O)[C@H]2O)c(=O)[nH]1` [UDP], the “Inhibition” value was “unable to affect the activity of the enzyme”.

Consider `O=c1ccn([C@@H]2O[C@H](COP(=O)(O)OP(=O)(O)OP(=O)(O)O)[C@@H](O)[C@H]2O)c(=O)[nH]1` [UTP], for which the “Inhibition” value is recorded as “no inhibition”.

For the compound `O=P(O)(O)OP(=O)(O)O` [pyrophosphate], the “Inhibition” value is listed as “unable to inhibit”.

Consider `O=P(O)(O)OP(=O)(O)OP(=O)(O)O` [tripolyphosphate], for which the “Inhibition” value was “unable to inhibit”.

Broadly, the IC50 is the concentration that gives 50% inhibition. A higher IC50 goes with a need for much substance. For orientation: Ki means a dissociation constant, usually derived from enzyme kinetics or from competition with a known ligand. High values mean weaker binding, low ones tighter binding.
